The test system of the test is Muse cells (SSEA-3-positive cells). As to the kind of experiment: Cell mobility analysis (EZ-TAXIScan), chemotactic ability of Muse cells. The format is cell-based. As to conditions: SSEA-3-positive cells from human bone marrow mesenchymal stem cells; 2 μM S1P as positive control; photographed every 10 minutes. Here is the method: Mesenchymal stem cells derived from human bone marrow in a concentration of 1×10^7 cells/mL were prepared using an FACS buffer containing Dulbecco PBS, 0.5% bovine serum albumin, and 2 mM EDTA (ethylenediaminetetraacetic acid). Thereto, an anti-SSEA-3 antibody (diluted 400 times) was added as a primary antibody. Reaction was allowed to proceed on ice for 1 hour while being suspended at appropriate times, followed by centrifugation for supernatant removal. Then, the addition and removal of an FACS buffer were repeated three times for rinsing. Thereto, an FITC-labeled anti-rat-IgM antibody (diluted 100 times) was added as a secondary antibody. Subsequently, in the same manner as above, reaction was allowed to proceed on ice for 1 hour and then addition and removal of an FACS buffer were repeated three times for rinsing. SSEA-3-positive cells were separated by FACS the day before measurement, followed by overnight culturing under conditions of 37° C. and 5% CO2. […] The resulting cell suspension was injected into each well of an EZ-[…] (registered trademark; the same applies hereinafter) holder chamber (GE Healthcare), and the cells were aligned properly in front of a terrace by a water-level difference method. […] The EZ-[…] holder chamber was placed in an incubator under conditions of 37° C. and 5% CO2. […]

Take `CCCCCCCCCCCCC/C=C/[C@@H](O)[C@@H](N)COP(=O)(O)O` [S1P, sphingosine-1-phosphate]: the “movement of Muse cells (chemotactic ability with time)” value is “same movement of Muse cells was observed”.

These data come from patent US20200254026A1, “AGENT FOR PROMOTING MIGRATION OF PLURIPOTENT STEM CELLS” (NIPPON ZOKI PHARMACEUTICAL CO., LTD., priority 2015, published 2020).
